# In US12460346B2, “Lactam coated textile” (Conopco, Inc., priority 2018, dated 2025):
# Tests used:
# [1] = test system: P. aeruginosa (PA01); test: Pseudomonas PAO1 biofilm inhibition on lactam-based textiles by SEM; format: cell-based, Pseudomonas aeruginosa; details: for Bacteria (pixels): SEM image; for % bacteria coverage: bacteria pixels/total pixels of SEM image
# Method: P. aeruginosa (PA01) was cultured overnight at 37° C. on TSA plates. Prior to use in tests, colonies were added to 20 mL of brain-heart infusion broth (BHI) containing 5 mL of glass beads and homogenised for 30 seconds. The optical density of the organism was measured and adjusted to give 1×10^8 cfu/mL. Inoculum (0.3 ml) was placed directly on modified and unmodified textiles in 24-well plates and incubated overnight in appropriate broth. Textiles were subsequently removed, washed in PBS and fixed for microscopy.
# Fixative was prepared as described (Erlandsen, Kristich, Dunny, Wells, J. Histochem Cytochem, 2004), using 2% para-formaldehyde, 2% gluteraldehyde and 0.15M Sodium Cacodylate and 0.15% Alcian Blue, pH 7.4. The fixative was applied (enough to cover the biofilms) to the wells containing the biofilms on suitable substrates for 2 hours, this varied between 2 and 22 hours.
# Following fixation, the fixative solution was removed and 0.15M Sodium Cacodylate buffer was added to the samples. The samples were then stored in the fridge until processing. Samples were washed 3×5 mins with […] fresh buffer to remove any remaining glutaraldehyde. Subsequently, a solution of 1% Osmium tetroxide (OsO4) was prepared 1:1 with 0.15M Sodium Cacodylate buffer, and added to the samples before incubating for 1 hour at room temperature. Samples were rinsed with distilled water 3×10 mins. 0.5% aqueous Uranyl acetate was then added to the samples before incubation in the dark for 30 mins at room temperature.
# Samples were then dehydrated in an ascending ethanol series:
# Samples were transferred from the original 24-well plate into a petri dish of hexamethyldisilazane (HMDS) for 5 mins, then to a second dish for 5 mins before being placed in a new 24-well plate lined with filter paper. The plate was then placed in a desiccator overnight to allow evaporation and drying or samples.
# After sputter coating with gold-palladium in an argon filled chamber, samples were viewed under a JEOL JSM-6400 scanning electron microscope and images were assembled using the Photoshop software.
# The SEM images were measured and the amount of pixels of textile and pixels of bacteria were determined. The % of bacteria coverage is the bacteria pixels/total pixels.
# [2] = test system: P. aeruginosa GFP; test: Pseudomonas Aeruginosa-GFP biofilm growth curve inhibition on lactam-based textiles by fluorescence; format: cell-based; details: lactam in acrylic emulsion binder, printed, or encapsulated and padded on textile; compared to textile without the lactam
# Method: A fluorescent strain of P. aeruginosa was used to allow growth inhibition to be measured by fluorescence. P. aeruginosa GFP was cultured for 2 days at 30° C. on MEA plates. Prior to use in tests, colonies were added to 20 mL of brain-heart infusion broth (BHI) containing 5 mL of glass beads and homogenised for 30 seconds. The optical density was measured and adjusted to give 1×10^8 cfu/m. Subsequently, 0.5 mL of the strain in BHI broth was added to the wells of a 24 well plate containing the substrates. This was then placed in the plate reader and read every hour at […]. The experiment tested a control (textile without lactam coating, the sample (textile coated with lactam) and a positive control (chlorhexidine).
# [3] = test system: P. aeruginosa (PA01); test: Biofilm growth inhibition on lactam-based acrylic emulsion textiles by viability (AlamarBlue), Pseudomonas; format: cell-based, Pseudomonas aeruginosa; details: for Mean biofilm metabolism (AlamarBlue): acrylic emulsion coated with lactam, overnight, lower than 100 = reduction in biofilm growth
# Method: (§1) P. aeruginosa (PA01), S. aureus (Newman's strain) were cultured overnight at 37° C. on TSA 5 plates. C. albicans […] was cultured for 2 days at 30° C. on MEA plates. Prior to use in tests, colonies of each organism were added to 20 mL of brain-heart infusion broth (BHI) containing 5 mL of glass beads and homogenised for 30 seconds. The optical density of each organism was measured and adjusted to give 1×10^7 cfu/mL. Inoculum (0.3 ml) was placed directly on acrylic emulsion coated cotton and PET textiles (with and without lactam) that have been previously positioned inside the wells of 6-well plates and incubated overnight in appropriate broth. Textiles were subsequently removed, washed in PBS and metabolism assessed by AlamarBlue on a plate reader. Data were presented as percentage of no-lactam control. A number lower than 100 indicates a reduction in microorganism biofilm growth for the lactam coated textile compared to uncoated textile.
# [4] = test system: C. albicans 3153A; test: Biofilm growth inhibition on lactam-based acrylic emulsion textiles by viability (AlamarBlue), Candida; format: cell-based, Candida albicans; details: acrylic emulsion coated with lactam, overnight, lower than 100 = reduction in biofilm growth
# Method: as §1
# [5] = test system: S. aureus (Newman's strain); test: Biofilm growth inhibition on lactam-based acrylic emulsion textiles by viability (AlamarBlue), Staphylococcus; format: cell-based, Staphylococcus aureus; details: acrylic emulsion coated with lactam, overnight, lower than 100 = reduction in biofilm growth
# Method: as §1
Compound,"Bacteria (pixels) ([1]; fluorinated polypropylene non-woven coated with cationic lactam, control textile 30,880)","% bacteria coverage ([1]; fluorinated polypropylene non-woven coated with cationic lactam, control textile 78.0%)","% bacteria coverage ([1]; fluorinated polypropylene non-woven coated with cationic lactam, control textile 78.0%, listed as Cationic Lactam)","Bacteria (pixels) ([1]; polypropylene non-woven coated with lactam in acrylic emulsion, control textile 10,851)","% bacteria coverage ([1]; polypropylene non-woven coated with lactam in acrylic emulsion, control textile 32.1%)","% bacteria coverage ([1]; polypropylene non-woven coated with lactam in acrylic emulsion, control textile 32.1%, listed as lactam)","Bacteria (pixels) ([1]; polypropylene non-woven printed with lactam in solvents, control textile 26,917)","% bacteria coverage ([1]; polypropylene non-woven printed with lactam in solvents, control textile 62.6%)","% bacteria coverage ([1]; polypropylene non-woven printed with lactam in solvents, control textile 62.6%, listed as lactam)","Bacteria (pixels) ([1]; viscose non-woven padded with lactam in polyurea encaps, control textile 16,291)","% bacteria coverage ([1]; viscose non-woven padded with lactam in polyurea encaps, control textile 47.8%)","% bacteria coverage ([1]; viscose non-woven padded with lactam in polyurea encaps, control textile 47.8%, listed as lactam)",Pseudomonas Aeruginosa-GFP biofilm growth on the textile (fluorescence growth curve) [2],Mean biofilm metabolism (AlamarBlue) ([3]; Cotton),Mean biofilm metabolism (AlamarBlue) ([3]; Polyethylene),biofilm growth compared to textile with no coating (in words) ([3]; polyethylene and cotton coated with lactam),Mean biofilm metabolism (AlamarBlue) ([4]; Cotton),Mean biofilm metabolism (AlamarBlue) ([4]; Polyethylene),Mean biofilm metabolism (AlamarBlue) ([5]; Cotton),Mean biofilm metabolism (AlamarBlue) ([5]; Polyethylene)
C=C1C(c2ccc(Cl)cc2)=CC(=O)N1CCC[N+](C)(C)C [lactam (488) (cationic)],"15,864 pixels",36.6%,36.6%,–,–,–,–,–,–,–,–,–,–,–,–,–,–,–,–,–
"C=C1NC(=O)C=C1c1ccc(Cl)cc1 [lactam (488), 4-(4-chlorophenyl)-5-methylene-pyrrol-2-one]",–,–,–,"2,660 pixels",10.1%,10.1%,"23,381 pixels",48.0%,48.0%,"1,806 pixels",8.7%,8.7%,reduced Pseudomonas Aeruginosa-GFP biofilm growth,54.89 percentage of no-lactam control,80.95 percentage of no-lactam control,reduction in Pseudomonas Aeruginosa biofilm growth,84.69 percentage of no-lactam control,67.83 percentage of no-lactam control,33.35 percentage of no-lactam control,47.88 percentage of no-lactam control
